Laboratory results as given in ChEMBL document CHEMBL1133921, “Absolute stereostructures of novel norcadinane- and trinoreudesmane-type sesquiterpenes with nitric oxide production inhibitory activity from Alpinia oxyphylla” (Bioorg Med Chem Lett, 2001).

Legend:
Type in all cases: functional
Mus musculus [1] = species: Mus musculus; test: Inhibitory concentration on nitric oxide production in lipopolysaccharide-activated mouse peritoneal macrophages
Mus musculus [2] = species: Mus musculus; test: Inhibitory effect on nitric oxide production in lipopolysaccharide activated mouse peritoneal macrophages at 3 uM
Mus musculus [3] = species: Mus musculus; test: Inhibitory effect on nitric oxide production in lipopolysaccharide activated mouse peritoneal macrophages at 10 uM

IC50 (Mus musculus [1])	SMILES	inhibition at 3 µM (Mus musculus [2])	inhibition at 10 µM (Mus musculus [3])
28 µM	CC(C)[C@@H]1CCC(=O)C2=C1[C@H](O)[C@](C)(O)CC2 [OXYPHYLLENODIOL A]	11.8%	–
> 100 µM	CC(C)[C@H]1CCC(=O)C2=C1[C@H](O)[C@](C)(O)CC2 [OXYPHYLLENODIOL B]	-4.2%	-0.4%
> 100 µM	C[C@@]12CCC(=O)C=C1[C@](C)(O)[C@H](O)CC2 [OXYPHYLLENONE B]	-8.1%	0.4%
35 µM	C[C@@]12CCC(=O)C=C1[C@@](C)(O)[C@H](O)CC2 [OXYPHYLLENONE A]	1.6%	-2.9%
–	CNC(=N)NCCC[C@H](N)C(=O)O [TILARGININE]	2%	–
